The target in data set [1] is T1, bradykinin (BK) B2 receptors (Homo sapiens, UniProt P30411).
T1 construct: The cell strains used in the study were human primary vein endothelial cells (HPVEC) and human aortic smooth muscle cells (HASMC); endogenous in cells; host or cells: HPVEC and HASMC (human primary cells)
T1 sequence (P30411 1-391): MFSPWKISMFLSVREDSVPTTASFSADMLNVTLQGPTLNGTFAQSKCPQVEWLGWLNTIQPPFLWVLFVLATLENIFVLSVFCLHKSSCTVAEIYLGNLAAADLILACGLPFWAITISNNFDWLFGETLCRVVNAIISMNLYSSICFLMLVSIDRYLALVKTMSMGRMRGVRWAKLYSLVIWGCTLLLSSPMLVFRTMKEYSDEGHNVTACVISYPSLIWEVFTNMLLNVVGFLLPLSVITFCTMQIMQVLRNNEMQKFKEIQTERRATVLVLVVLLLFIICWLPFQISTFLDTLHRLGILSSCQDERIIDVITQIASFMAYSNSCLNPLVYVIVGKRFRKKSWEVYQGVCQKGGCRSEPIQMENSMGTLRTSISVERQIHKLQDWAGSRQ
Description: PG secretion in cell supernatant by enzyme immunoassay (EIA), relative to 1 μM bradykinin. It counts as cell-based. As to conditions: for PG release (%) compared with BK-1 μM (100%): 1 h, 37° C. How it is done: We studied angiotensin II receptor antagonists activating bradykinin (BK) B2 receptors to promote secretion of Prostaglandin. Losartan, candesartan, telmisartan were selected for the study described below, and bradykinin was used as control. Implantation Two cell lines were transferred into T-75 cell culture flask, and then the instructions of PG kit were strictly followed when cells have reached the appropriate density. Day 1 Cells were seeded in 24 well dishes with minimum medium and allowed to adhere overnight. Day 2 Cells were starved in the serum-free conditioned medium. […] The supernatant was collected after incubation for later use. Day 4 24 well dishes were washed and then dyed for 45-90 min, and then the OD value was measured for analysis. Therefore OD values of BK B2 receptor agonists were obtained and the EC50, EMAX were calculated. The cell strains used in the study were human primary vein endothelial cells (HPVEC) and human aortic smooth muscle cells (HASMC).
In order to detect endogenous prostaglandin, enzyme immunoassay (EIA) was used to determine the amount of prostaglandin and subtypes thereof in the cell supernatant described above.

Data set [2] concerns the target T2, B2 receptor (Homo sapiens, UniProt P30411).
T2 construct: The cell strains used in the study were human primary vein endothelial cells (HPVEC) and human aortic smooth muscle cells (HASMC); endogenous in cells; host or cells: HPVEC and HASMC (human primary cells)
T2 sequence (P30411 1-391): T1 sequence (P30411 1-391)
Description: Inhibition of PG secretion by B2 receptor inhibitor HOE-140. It is filed as cell-based. The note with it: for PG synthesis blocked by 1 μM HOE-140: PG synthesis caused by 10 μM of the compound. The method, then: The detailed protocol for the elucidation of inhibited PG secretion by B2 receptor inhibitor HOE-140 was shown as follows. Two different cell lines were transferred into T-75 cell culture flask, and then the instructions of PG kit were strictly followed when cells have reached the appropriate density. Day 1. Cells were seeded in 24 well dishes with minimum medium and allowed to adhere overnight. Day 2. Cells were starved in the serum-free conditioned medium. Day 3. […] Cells were incubated at 37° C. for 1 h. The supernatant was collected after incubation for later use. Day 4. 24 well dishes were washed and then dyed for 45-90 min, and then the quantitative analysis was carried out. Therefore OD values (420 nm) of BK B2 receptor agonists were obtained and the EC50, EMAX were calculated.
Therefore we could conclude the angiotensin II type 1 receptor antagonists influence PG secretion via B2 receptor since HOE-140 acts as B2 receptor antagonist

The target of data set [3] is T2, B2 receptor. The data set is described as follows: PG subtype secretion (EIA) induced by Candesartan in HPVEC and HASMC. As to conditions: for PGE2 (%) / PGF-2a (%): 10 μM Candesartan. It counts as cell-based. An excerpt:
These percentage values above were all calibrated with respect to bradykinin.

For data set [4] the following is noted: longest of all commercially available ARBs; cited from earlier work.
Setting [5] is: 10 μM, calibrated with respect to bradykinin.
Setting [6] is: HASMC, calibrated with respect to bradykinin.
[7] abbreviates: HPVEC, calibrated with respect to bradykinin.

Structures are written as SMILES.

Regarding `CCOc1nc2cccc(C(=O)O)c2n1Cc1ccc(-c2ccccc2-c2nn[nH]n2)cc1` [Candesartan, 2-ethoxy-1-({4-[2-(2H-1,2,3,4-tetrazol-5-yl)phenyl]phenyl}methyl)-1H-1,3-benzodiazole-7-carboxylic acid], the “PG release (%) compared with BK-1 μM (100%)” value (“PG release (%)” below) in data set [1] (1 μM) came out at 16.51 ± 2.02%; in data set [1] (3 μM), 26.91 ± 4.13%; in data set [1] (10 μM), 46.19 ± 5.65%; in data set [1] (30 μM), 86.83 ± 7.21%; in data set [1] (30 nm), 6.21 ± 2.3%; in data set [1] (100 nm) it was 11.27 ± 2.74%. The “PG release (%)” value in data set [1] (300 nm) is given as 12.91 ± 3.08%. Also, the “effect relative to the effect of 1 μM of bradykinin (PG secretion)” value (from here on “effect relative to the effect”) was roughly 50% in data set [1] (10 μM) and roughly 90% in data set [1] (30 μM). The “PG relaease (%) compared with BK-1 μM (100%)” value (“PG relaease (%)” below) on B2 receptor [2] (10 μM + 1 μM HOE-140) was found to be 6 ± 3.12%; on B2 receptor [2] (10 μM, without HOE-140), 46.19 ± 5.65%. The “PG synthesis blocked by 1 μM HOE-140” value on B2 receptor [2] is 85%. In addition, at B2 receptor [3] (10 μM), the “Prostaglandin D secretion” value is “no Prostaglandin D detected”. Further, at B2 receptor [3] (setting [5]), the “share of PG secretion that was Prostaglandin E2” value is on record as 30%. Further, at B2 receptor [3] (setting [5]), the “share of PG secretion that was Prostaglandin F-2a” value is “roughly 6%”. The “PGE2 (%)” value at B2 receptor [3] (setting [6]) is 37.13 ± 9.85%; on B2 receptor [3] (setting [7]), 32.54 ± 6.93%. For the same compound, the entries for the “PGF-2a (%)” value on B2 receptor [3] (setting [6]) and on B2 receptor [3] (setting [7]) were 6.21 ± 2.56% and 5.47 ± 3.32%, respectively.
`CCCCc1nc(Cl)c(CO)n1Cc1ccc(-c2ccccc2-c2nn[nH]n2)cc1` [Losartan, (2-butyl-4-chloro-1-{[2′-(1H-tetrazol-5-yl)biphenyl-4-yl]methyl}-1H-imidazol-5-yl)methanol]: the “PG release (%)” value in data set [1] (1 μM) is 8.16 ± 2.43%; in data set [1] (3 μM), 12.06 ± 4.12%; in data set [1] (10 μM), 23.18 ± 3.65%; in data set [1] (30 μM), 58.17 ± 6.32%; in data set [1] (30 nm) it was 0.18 ± 0.74%; in data set [1] (100 nm), 2.96 ± 2.22%. Also, in data set [1] (300 nm), the “PG release (%)” value is on record as 4.69 ± 1.21%. Also, the “effect relative to the effect” value in data set [1] (30 μM) is on record as roughly 60%. In addition, the “PG relaease (%)” value worked out at 5 ± 4.45% at B2 receptor [2] (10 μM + 1 μM HOE-140) and 23.18 ± 3.65% on B2 receptor [2] (10 μM, without HOE-140). For the same compound, the “PG synthesis blocked by 1 μM HOE-140” value on B2 receptor [2] stood at 80%.
In the case of `CCCc1nc2c(C)cc(-c3nc4ccccc4n3C)cc2n1Cc1ccc(-c2ccccc2C(=O)O)cc1` [Telmisartan, 2-(4-{[4-methyl-6-(1-methyl-1H-1,3-benzodiazol-2-yl)-2-propyl-1H-1,3-benzodiazol-1-yl]methyl}phenyl)benzoic acid], the “PG release (%)” value was 9.01 ± 1.35% in data set [1] (1 μM); 13.56 ± 1.56% in data set [1] (3 μM); 14.56 ± 2.42% in data set [1] (10 μM); 25.46 ± 3.48% in data set [1] (30 μM); 4.48 ± 1.54% in data set [1] (30 nm); 4.69 ± 1.78% in data set [1] (100 nm). Also, the “PG release (%)” value in data set [1] (300 nm) is recorded as 6.46 ± 3.1%. Moreover, the “effect relative to the effect” value in data set [1] (30 μM) is roughly 25%. The “PG relaease (%)” value came out at 3 ± 2.03% at B2 receptor [2] (10 μM + 1 μM HOE-140) and 14.56 ± 2.42% at B2 receptor [2] (10 μM, without HOE-140). Besides, the “PG synthesis blocked by 1 μM HOE-140” value on B2 receptor [2] amounted to 80%. Also, the half-life result in data set [4] is reported as “about 24 h”.

The record behind these values is patent US20160081901A1, “COMPOSITIONS AND METHODS FOR HAIR GROWTH” (WUHAN OPTICS VALLEY BRIDGEBIOMED INTERNATIONAL CORPORATION, priority 2013, published 2016).
